Results from PubChem BioAssay AID328 (DTP/NCI, 2004).
Several values for one entry are separate records, joined by “and”; a condition that tells them apart may be missing. Equal values may be shown once. Toxic doses and inconclusive results are not listed. Rule for the calls: active = survival T/C of 150% or more; inactive = T/C below 125% in these data.

System: BDF1 mice, P388 leukemia ip, median survival T/C
Experiment: NCI In Vivo Anticancer Drug Screen. Data for tumor model P388 Leukemia (intraperitoneal) in B6D2F1 (BDF1) mice
Conditions: endpoint: median survival time, higher = longer survival
How it was run: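 Mice carrying the transplantable tumour receive compound or vehicle. Survival is followed in each arm, and the treated measure is divided by the vehicle measure.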

[1] = dose: 100.0 mg/kg/injection, schedule: Q04DX003 (ip), vehicle: saline with Tween-80
[2] = dose: 200.0 mg/kg/injection, schedule: Q04DX003 (ip), vehicle: saline with Tween-80
[3] = dose: 400.0 mg/kg/injection, schedule: Q04DX003 (ip), vehicle: saline with Tween-80
[4] = dose: 25.0 mg/kg/injection, schedule: Q01DX009 (ip), vehicle: saline
[5] = dose: 50.0 mg/kg/injection, schedule: Q01DX009 (ip), vehicle: saline
[6] = dose: 100.0 mg/kg/injection, schedule: Q01DX009 (ip), vehicle: saline
[7] = dose: 100.0 mg/kg/injection, schedule: Q04DX003 (ip), vehicle: saline
[8] = dose: 200.0 mg/kg/injection, schedule: Q04DX003 (ip), vehicle: saline
[9] = dose: 50.0 mg/kg/injection, schedule: Q04DX003 (ip), vehicle: saline with Tween-80
[10] = dose: 200.0 mg/kg/injection, schedule: Q01DX009 (ip), vehicle: saline
[11] = dose: 400.0 mg/kg/injection, schedule: Q01DX009 (ip), vehicle: saline
[12] = dose: 50.0 mg/kg/injection, schedule: Q01DX009 (ip), vehicle: saline with Tween-80
[13] = dose: 100.0 mg/kg/injection, schedule: Q01DX009 (ip), vehicle: saline with Tween-80
[14] = dose: 200.0 mg/kg/injection, schedule: Q01DX009 (ip), vehicle: saline with Tween-80
[15] = dose: 50.0 mg/kg/injection, schedule: Q04DX003 (ip), vehicle: Klucel (hydroxypropylcellulose) (HPC)
[16] = dose: 100.0 mg/kg/injection, schedule: Q04DX003 (ip), vehicle: Klucel (hydroxypropylcellulose) (HPC)
[17] = dose: 200.0 mg/kg/injection, schedule: Q04DX003 (ip), vehicle: Klucel (hydroxypropylcellulose) (HPC)
[18] = dose: 400.0 mg/kg/injection, schedule: Q01DX009 (ip), vehicle: saline with Tween-80

Measured: T/C

COc1ccc2[nH]c3c(C)c4ccncc4c(C)c3c2c1
inactive: dose: 4.68 mg/kg/injection, schedule: Q01DX009 (ip), vehicle: water 117 % of control | dose: 9.37 mg/kg/injection, schedule: Q01DX009 (ip), vehicle: water 88 % of control | dose: 18.5 mg/kg/injection, schedule: Q01DX009 (ip), vehicle: other 87 % of control | dose: 18.75 mg/kg/injection, schedule: Q01DX001 (ip), vehicle: other 112 % of control | dose: 18.75 mg/kg/injection, schedule: Q01DX009 (ip), vehicle: water 94 % of control | dose: 37.5 mg/kg/injection, schedule: Q01DX001 (ip), vehicle: other 116 % of control | dose: 75.0 mg/kg/injection, schedule: Q04DX003 (ip), vehicle: other 95 % of control
active: dose: 9.37 mg/kg/injection, schedule: Q04DX003 (ip), vehicle: water 176 % of control | dose: 18.5 mg/kg/injection, schedule: Q04DX003 (ip), vehicle: water 188 % of control | dose: 18.75 mg/kg/injection, schedule: Q01DX001 (ip), vehicle: water 176 % of control | dose: 37.5 mg/kg/injection, schedule: Q01DX001 (ip), vehicle: water 164 % of control | dose: 37.5 mg/kg/injection, schedule: Q04DX003 (ip), vehicle: other 158 % of control | dose: 75.0 mg/kg/injection, schedule: Q01DX001 (ip), vehicle: water 200 % of control

C[C@]1(O)CC[C@H]2[C@@H]3CCC4=CC(=O)CC[C@]4(C)[C@@]3(Cl)[C@@H](O)C[C@@]21C
inactive: dose: 100.0 mg/kg/injection, schedule: Q01DX009 (ip), vehicle: saline sonified 100 % of control | [1] 95 % of control | dose: 200.0 mg/kg/injection, schedule: Q01DX009 (ip), vehicle: saline sonified 100 % of control | [2] 100 % of control | dose: 400.0 mg/kg/injection, schedule: Q01DX009 (ip), vehicle: saline sonified 100 % of control | [3] 100 % of control

Cc1cc([N+](=O)[O-])cc([N+](=O)[O-])c1OC(=O)c1ccc(N=C(N)N)cc1
inactive: [4] 110 % of control | [5] 110 % of control | dose: 50.0 mg/kg/injection, schedule: Q04DX003 (ip), vehicle: saline 109 % of control | [6] 110 % of control | [7] 100 % of control | dose: 150.0 mg/kg/injection, schedule: Q01DX009 (ip), vehicle: saline 110 % of control | [8] 90 % of control

CC(CC(=O)c1ccccc1)=Nc1ccccc1.CC(CC(=O)c1ccccc1)=Nc1ccccc1.[Cu]
inactive: dose: 100.0 mg/kg/injection, schedule: Q01DX001 (ip), vehicle: saline sonified 100 % of control | dose: 200.0 mg/kg/injection, schedule: Q01DX001 (ip), vehicle: saline sonified 100 % of control | dose: 400.0 mg/kg/injection, schedule: Q01DX001 (ip), vehicle: saline sonified 90 % of control

Cc1sc2ncnc(N)c2c1C
inactive: [9] 103 % of control | [1] 105 % of control | [2] 94 % of control | [3] 105 % of control

NCCS(=O)(=O)O
inactive: dose: 12.5 mg/kg/injection, schedule: Q01DX009 (ip), vehicle: saline 90 % of control and 100 % of control | dose: 17.5 mg/kg/injection, schedule: Q01DX009 (ip), vehicle: saline 123 % of control | [4] 110 % of control | dose: 35.0 mg/kg/injection, schedule: Q01DX009 (ip), vehicle: saline 123 % of control | [5] 100 % of control (2×) and 113 % of control | dose: 70.0 mg/kg/injection, schedule: Q01DX009 (ip), vehicle: saline 107 % of control | [6] 86 % of control and 94 % of control | [10] 100 % of control | [11] 95 % of control and 105 % of control

C=CCN1C=CC=C/C1=C\C=C(/C#N)C(=O)OCC
inactive: [12] 99 % of control | [13] 90 % of control | [14] 103 % of control

CCCCc1[nH]nc2c1C(=O)C(Nc1ccccc1)=CC2=O
inactive: [1] 103 % of control | [2] 100 % of control | [3] 100 % of control

[O-]c1on[n+](C2CCCCC2)c1-c1ccccc1
inactive: [15] 105 % of control | dose: 100.0 mg/kg/injection, schedule: Q01DX001 (ip), vehicle: Klucel (hydroxypropylcellulose) (HPC) 109 % of control | [13] 92 % of control | [16] 100 % of control | dose: 200.0 mg/kg/injection, schedule: Q01DX001 (ip), vehicle: Klucel (hydroxypropylcellulose) (HPC) 104 % of control | [14] 92 % of control | [17] 100 % of control | dose: 400.0 mg/kg/injection, schedule: Q01DX001 (ip), vehicle: Klucel (hydroxypropylcellulose) (HPC) 100 % of control

COc1ccc(/C=C/C(=O)c2ccccc2)cc1
inactive: [13] 97 % of control | [1] 104 % of control | [14] 98 % of control | [2] 104 % of control | [18] 98 % of control | [3] 104 % of control

O=S(=O)(O)c1ccncc1
inactive: dose: 100.0 mg/kg/injection, schedule: Q01DX001 (ip), vehicle: saline 116 % of control | dose: 200.0 mg/kg/injection, schedule: Q01DX001 (ip), vehicle: saline 104 % of control | dose: 400.0 mg/kg/injection, schedule: Q01DX001 (ip), vehicle: saline 87 % of control

CC(C)(C)OC(=O)NO
inactive: [6] 105 % of control | [7] 91 % of control | [10] 95 % of control | [8] 95 % of control | [11] 90 % of control | dose: 400.0 mg/kg/injection, schedule: Q04DX003 (ip), vehicle: saline 95 % of control

O=[N+]([O-])c1ccc(S(=O)(=O)Oc2ccccc2)cc1
inactive: [12] 105 % of control | [15] 100 % of control | [13] 100 % of control | [16] 105 % of control | [14] 105 % of control | [17] 105 % of control

O[C@@H]1CCCC[C@@H]1n1cnc2c(=S)nc[nH]c21
inactive: [13] 92 % of control | [1] 100 % of control | [14] 96 % of control | [2] 104 % of control | [3] 100 % of control

CC(=O)Nc1c(Cl)cc2c(c1Cl)Cc1cc(N=Cc3ccc4c(c3)OCO4)ccc1-2
inactive: dose: 25.0 mg/kg/injection, schedule: Q01DX009 (ip), vehicle: Klucel (hydroxypropylcellulose) (HPC) 90 % of control | dose: 50.0 mg/kg/injection, schedule: Q01DX009 (ip), vehicle: Klucel (hydroxypropylcellulose) (HPC) 90 % of control | dose: 100.0 mg/kg/injection, schedule: Q01DX009 (ip), vehicle: Klucel (hydroxypropylcellulose) (HPC) 86 % of control

CCCC(O)(CCC)CC(=O)OCC
inactive: dose: 100.0 mg/kg/injection, schedule: Q04DX003 (ip), vehicle: saline sonified 104 % of control | dose: 200.0 mg/kg/injection, schedule: Q04DX003 (ip), vehicle: saline sonified 109 % of control | dose: 400.0 mg/kg/injection, schedule: Q04DX003 (ip), vehicle: saline sonified 113 % of control

O=c1[nH]c(Cl)nc2c(Cl)c(C(Cl)(Cl)Cl)nn12
inactive: dose: 25.0 mg/kg/injection, schedule: Q01DX009 (ip), vehicle: saline with Tween-80 104 % of control | dose: 25.0 mg/kg/injection, schedule: Q04DX003 (ip), vehicle: saline with Tween-80 113 % of control | [12] 109 % of control | [9] 120 % of control | [13] 106 % of control | [1] 93 % of control and 104 % of control | [14] 109 % of control | [18] 104 % of control | [3] 86 % of control

CCCCCCCCCCCCCCCC(=O)Oc1ccc(/C(CC)=C(/CC)c2ccc(OC(=O)CCCCCCCCCCCCCCC)cc2)cc1
inactive: [1] 90 % of control | [2] 89 % of control | [3] 89 % of control

COc1cc(Br)c(CCC#N)cc1OC
inactive: [12] 91 % of control | [13] 110 % of control | [14] 92 % of control

CS(=O)(=O)N(CC(=O)O)Cc1ccccc1
inactive: dose: 50.0 mg/kg/injection, schedule: Q04DX003 (ip), vehicle: sodium bicarbonate 107 % of control | dose: 100.0 mg/kg/injection, schedule: Q04DX003 (ip), vehicle: sodium bicarbonate 119 % of control | dose: 200.0 mg/kg/injection, schedule: Q04DX003 (ip), vehicle: sodium bicarbonate 103 % of control | dose: 400.0 mg/kg/injection, schedule: Q04DX003 (ip), vehicle: sodium bicarbonate 110 % of control
